Data on four molecules can be found in patent US20210046063A1 (University of Kentucky Research Foundation, priority 2019, published 2021).

The test system of one test is Par-4 secretion. As to conditions: cited from earlier work.
Test [1] deals with lung cancer cell lines (A549/EML4-ALK, A549, A549TR, H1299, KP-7B). In words: Apoptosis of lung cancer cells (ICC for active caspase-3, scored by confocal microscopy). As to conditions: 24 h. In kind it is cell-based.
Description: Lung cancer cells treated with vehicle, CQ (100 nM), CZT (25 μM), and a combination of CZT (1 μM) and CQ (25 nM) for 24 h.
The test system of another test is LLC1 cells. In words: LLC1-derived lung tumor nodules in mice. The test is classed as in vivo. Particulars: FIG. 2.
The subject of test [2] is GRP78 on lung cancer cell surface. In words: Analysis for GRP78 at the cell surface of lung cancer cells. The test is classed as cell-based. As to conditions: CZT (1 μM), 24 h, FIG. 1B. The source says:
Analysis for GRP78 at the cell surface. Mean+SD shown. *P<0.01 by Anova or Student's t test. P>0.05 by Anova.
A lack of cell surface […] expression may prevent secreted Par-4 from inducing apoptosis in cancer cells.

The test system of a further test is Par-4. As to conditions: cancer patients, Phase 1 clinical trials; cited from earlier work.

“Also recorded” adds a separate entry of the source.

Description for LLC1 cells: Mice were injected i.v. with LLC1 cells, and 24 h later injected i.p. with CQ (25 mg/kg body weight), CZT (10 mg/kg body weight), CQ+CZT (25 and 10 mg/kg, resp.) or vehicle once every day for 5 consecutive days. After 28 days, the lungs were scored for tumor nodules. *P<0.01 by Anova test.

For `CCN(CC)CCCC(C)Nc1ccnc2cc(Cl)ccc12` (stereo not drawn) [CQ, Chloroquine], in the test with Par-4 secretion (lung cancer cells), the “Par-4 secretion from lung cancer cells” value is recorded as “did not show secretion of Par-4”. In the test with Par-4 secretion (normal cells, cell culture and mice), the “Par-4 secretion from normal cells” value is “increased Par-4 secretion from normal cells”. Also, in test [1] (combination of CZT (1 μM) and CQ (25 nM), P>0.05, FIG. 1C), the “apoptosis, CQ in conjunction with CZT added directly to cancer cells” value is reported as “did not induce apoptosis”. Moreover, in the test on LLC1 cells (LLC1-derived nodules in mice, CQ 25 mg/kg + CZT 10 mg/kg i.p.), the “inhibition of lung tumor nodules by CQ in the presence of CZT, relative to CZT or CQ administered separately” value is “significantly greater inhibition”.
Turning to `C[C@@H](Oc1cc(-c2cnn(C3CCNCC3)c2)cnc1N)c1c(Cl)ccc(F)c1Cl` [CZT, Crizotinib], the “GRP78 expression at the cell surface” value in test [2] is reported as “upregulates GRP78 expression on the surface of lung cancer cells; also recorded: elevation of Par-4 receptor GRP78 on lung tumor cell surface”. Also, in the test with LLC1 cells (LLC1 cells i.v., i.p. CQ 25 mg/kg, CZT 10 mg/kg, once daily for 5 days, lungs scored after 28 days), the “inhibition of lung tumor growth (lung tumor nodules)” value was “significant inhibition of lung tumor growth; also recorded: showed an effect”.
For `CCN(CCO)CCCC(C)Nc1ccnc2cc(Cl)ccc12` (stereo not drawn) [HCQ, hydroxychloroquine], in the test with Par-4, the “Par-4 levels in plasma” value was “elevated Par-4 levels in the plasma” and the “apoptosis in patients' tumors” value is reported as “induced apoptosis in their tumors”.

B1: recombinant Par-4: recombinant tumor suppressor Prostate Apoptosis Response-4 protein, binds receptor GRP78 (protein, UniProt Q96IZ0 1-340, looked up)
PRKC apoptosis WT1 regulator …: MATGGYRTSSGLGGSTTDFLEEWKAKREKMRAKQNPPGPAPPGGGSSDAAGKPPAGALGTPAAAAANELNNNLPGGAPAAPAVPGPGGVNCAVGSAMLTRAAPGPRRSEDEPPAASASAAPPPQRDEEEPDGVPEKGKSSGPSARKGKGQIEKRKLREKRRSTGVVNIPAAECLDEYEDDEAGQKERKREDAITQQNTIQNEAVNLLDPGSSYLLQEPPRTVSGRYKSTTSVSEEDVSSRYSRTDRSGFPRYNRDANVSGTLVSSSTLEKKIEDLEKEVVRERQENLRLVRLMQDKEEMIGKLKEEIDLLNRDLDDIEDENEQLKQENKTLLKVVGQLTR
Consider B1, for which the “apoptosis (active caspase-3 positive cells), CZT together with recombinant Par-4” value in test [1] (CZT (1 μM) + recombinant Par-4 (100 nM), A549/EML4-ALK, A549, A549TR, H1299, KP-7B cells, FIG. 1A) is listed as “increased apoptosis”.
